Measurements as given in ChEMBL document CHEMBL1201862, “PubChem BioAssay data set” (2004).
The source made the active and inactive calls.

Columns and labels:
[1] = target: T1, Methionyl-tRNA synthetase, putative (Trypanosoma brucei brucei, UniProt Q38C91); assay type: functional, Trypanosoma brucei brucei strain 927/4 GUTat10.1
T1 sequence (Q38C91 whole entry): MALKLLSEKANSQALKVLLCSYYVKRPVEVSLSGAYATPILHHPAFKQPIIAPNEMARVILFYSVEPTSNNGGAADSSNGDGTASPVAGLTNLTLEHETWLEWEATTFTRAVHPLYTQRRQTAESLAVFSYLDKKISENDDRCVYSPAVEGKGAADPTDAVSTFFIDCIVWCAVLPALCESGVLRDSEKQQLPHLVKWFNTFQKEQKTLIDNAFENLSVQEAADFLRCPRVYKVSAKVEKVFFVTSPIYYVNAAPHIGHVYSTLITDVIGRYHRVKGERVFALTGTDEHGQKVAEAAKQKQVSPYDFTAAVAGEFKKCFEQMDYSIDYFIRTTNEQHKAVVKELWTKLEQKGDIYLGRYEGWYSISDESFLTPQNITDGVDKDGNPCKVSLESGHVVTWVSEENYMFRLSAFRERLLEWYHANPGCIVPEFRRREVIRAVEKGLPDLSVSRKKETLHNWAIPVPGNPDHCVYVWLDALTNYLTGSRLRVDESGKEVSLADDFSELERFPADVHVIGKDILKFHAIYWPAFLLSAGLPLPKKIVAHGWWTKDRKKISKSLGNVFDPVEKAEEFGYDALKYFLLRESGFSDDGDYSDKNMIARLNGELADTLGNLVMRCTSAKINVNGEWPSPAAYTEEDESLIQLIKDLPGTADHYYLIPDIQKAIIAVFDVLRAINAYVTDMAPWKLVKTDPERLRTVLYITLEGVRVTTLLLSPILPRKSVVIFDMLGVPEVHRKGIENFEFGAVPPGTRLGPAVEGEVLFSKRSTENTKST

[2] = target: T1, Methionyl-tRNA synthetase, putative; assay type: functional, Trypanosoma brucei brucei strain 927/4 GUTat10.1; remark: listed apart in the source
[3] = Counterscreen for inhibitors of Trypanosoma brucei methionyl tRNA synthetase (MetRS): Luminescence-based cell-based high throughput dose response assay to identify compounds that are cytotoxic to Jurkat human T lymphocyte cells.; assay type: functional
[4] = target: T2, Rac GTPase-activating protein 1 (Homo sapiens, UniProt Q9H0H5); assay: MgcRacGAP GTPase-activating activity inhibitors, confirmation, biochemical, ADP Hunter fluorescence, primary and confirmatory (AID 624330); assay type: functional
T2 sequence (Q9H0H5 whole entry): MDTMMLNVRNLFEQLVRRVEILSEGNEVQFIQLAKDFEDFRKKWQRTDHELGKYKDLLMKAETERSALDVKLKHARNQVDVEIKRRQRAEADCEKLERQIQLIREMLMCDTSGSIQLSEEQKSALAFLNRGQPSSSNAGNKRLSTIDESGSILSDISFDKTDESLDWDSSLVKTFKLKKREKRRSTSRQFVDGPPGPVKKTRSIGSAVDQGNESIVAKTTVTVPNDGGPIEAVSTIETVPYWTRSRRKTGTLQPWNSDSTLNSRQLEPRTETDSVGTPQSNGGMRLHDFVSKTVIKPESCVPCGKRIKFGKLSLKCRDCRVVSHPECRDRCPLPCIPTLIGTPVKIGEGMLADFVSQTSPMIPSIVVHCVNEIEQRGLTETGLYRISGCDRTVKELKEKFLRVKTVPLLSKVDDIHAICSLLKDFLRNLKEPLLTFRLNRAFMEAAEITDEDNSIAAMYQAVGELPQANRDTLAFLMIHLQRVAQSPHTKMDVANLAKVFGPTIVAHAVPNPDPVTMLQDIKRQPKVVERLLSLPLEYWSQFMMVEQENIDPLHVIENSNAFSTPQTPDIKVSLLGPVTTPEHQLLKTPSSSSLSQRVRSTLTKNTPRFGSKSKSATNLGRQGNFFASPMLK

[5] = HeLa cell cytotoxicity, dose response, cytotoxicity control for MgcRacGAP inhibitor project (AID 624300); assay type: functional
[6] = target: Fructose-bisphosphate aldolase (Mycobacterium tuberculosis, UniProt P9WQA3); assay: Fluorescence-based biochemical high throughput dose response assay for inhibitors of the fructose-bisphosphate aldolase (FBA) of M. tuberculosis.; assay type: functional
[7] = system: HEK293; assay: NOD2 signaling inhibitors in MDP-stimulated cells, cell-based, uHTS, luminescence (AID 2001); assay type: functional; settings: Homo sapiens
[8] = system: HEK293; assay: NOD1 signaling inhibitors, primary screen, cell-based, luminescence, uHTS (AID 1578); assay type: functional; settings: Homo sapiens
[9] = non-specific cell cytotoxicity, dose response, cytotoxicity control for PAX8 inhibitor project, plate reader, dry powder samples (AID 743021); assay type: functional, cell-based
[10] = system: HEK293; assay: cells; assay type: functional, cell-based; settings: Homo sapiens
[11] = target: Paired box protein Pax-8 (Homo sapiens, UniProt Q06710); assay: inhibitors of PAX8-driven TPO luciferase reporter, dose response, RMG-I cells, cherry-pick (AID 687027); assay type: functional, cell-based;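 also: luciferase reporter driven by Pax8 target thyroperoxidase promoter measured by SteadyGlo luminescence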
[12] = target: T3, Protein skinhead-1 (Caenorhabditis elegans, UniProt P34707); assay type: functional
T3 sequence (P34707 whole entry): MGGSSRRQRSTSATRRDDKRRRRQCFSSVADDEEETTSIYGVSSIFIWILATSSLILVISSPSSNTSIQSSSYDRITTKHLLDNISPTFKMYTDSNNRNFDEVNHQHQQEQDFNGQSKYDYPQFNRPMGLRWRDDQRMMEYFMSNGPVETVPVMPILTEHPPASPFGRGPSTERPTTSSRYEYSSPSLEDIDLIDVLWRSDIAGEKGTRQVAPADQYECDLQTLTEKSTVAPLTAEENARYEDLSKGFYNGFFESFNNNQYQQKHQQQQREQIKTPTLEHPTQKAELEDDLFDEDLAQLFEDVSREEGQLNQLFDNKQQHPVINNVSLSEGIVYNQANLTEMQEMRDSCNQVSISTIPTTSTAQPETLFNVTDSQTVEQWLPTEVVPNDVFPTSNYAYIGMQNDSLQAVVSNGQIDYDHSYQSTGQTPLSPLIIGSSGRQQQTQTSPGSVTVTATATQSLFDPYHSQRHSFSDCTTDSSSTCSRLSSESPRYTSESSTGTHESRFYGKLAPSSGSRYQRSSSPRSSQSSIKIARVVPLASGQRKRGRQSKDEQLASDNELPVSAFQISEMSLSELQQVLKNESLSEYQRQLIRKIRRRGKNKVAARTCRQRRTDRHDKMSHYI

[13] = HEK293 cell cytotoxicity, dose response, cytotoxicity control, plate reader, cherry-picked samples (AID 743446); assay type: functional, cell-based
[14] = MC4R antagonists, dose response, counter-screen for LGR2 antagonist project, cell-based, plate reader, cherry pick (AID 743444); assay type: functional;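 also: transfected HEK 293 cells stimulated with alpha-MSH peptide; potency of inhibitors of the alpha-MSH evoked signal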
[15] = LGR2 antagonists, dose response, cell-based, HEK293, CRE-luciferase reporter, cherry pick, set 2 (AID 743343); assay type: functional;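 also: transfected cells were stimulated with diluted bursicon conditioned medium after compound addition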
[16] = system: HEK293; assay: cells; assay type: functional, cell-based; settings: Homo sapiens; remark: listed apart in the source
[17] = target: T4, Heat shock factor protein 1 (Mus musculus, UniProt P38532); assay: inhibition of MG132-induced HSE-luciferase signal, confirmation, cell-based, NIH3T3, luminescence, dose retest (AID 2382); assay type: functional;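 also: NIH3T3 fibroblasts with HSF1-driven luciferase reporter stressed by proteasome inhibitor MG132; luminescence from HSF1-driven luciferase expression after 8 hours of MG132 stress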
T4 sequence (P38532 whole entry): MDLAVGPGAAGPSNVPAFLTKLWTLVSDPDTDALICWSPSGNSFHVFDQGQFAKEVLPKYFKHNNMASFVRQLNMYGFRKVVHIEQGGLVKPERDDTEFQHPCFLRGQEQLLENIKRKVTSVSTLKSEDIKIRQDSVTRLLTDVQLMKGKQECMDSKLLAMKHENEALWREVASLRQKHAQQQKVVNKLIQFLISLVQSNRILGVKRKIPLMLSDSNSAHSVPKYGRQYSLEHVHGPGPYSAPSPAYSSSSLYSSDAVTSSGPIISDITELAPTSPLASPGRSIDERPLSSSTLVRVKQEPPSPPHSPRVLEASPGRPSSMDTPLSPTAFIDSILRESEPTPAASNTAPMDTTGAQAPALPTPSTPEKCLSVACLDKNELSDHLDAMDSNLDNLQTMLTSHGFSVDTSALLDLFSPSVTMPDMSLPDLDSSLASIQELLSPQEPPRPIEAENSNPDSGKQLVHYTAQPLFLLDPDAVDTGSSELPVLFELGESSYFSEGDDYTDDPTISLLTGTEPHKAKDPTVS

[18] = target: Nucleotide-binding oligomerization domain-containing protein 2 (Homo sapiens, UniProt Q9HC29); assay: NOD2 signaling inhibitors, cell-based, luminescence, uHTS, HEK293 (AID 1566); assay type: functional
[19] = HepG2 cell cytotoxicity, dose response, cytotoxicity control, plate reader, cherry-pick, antagonist series (AID 743416); assay type: functional, cell-based
[20] = system: HEK293; assay: cells; assay type: functional, cell-based; settings: Homo sapiens; remark: listed apart in the source
[21] = A549 cell cytotoxicity, dose response, cytotoxicity control, plate reader, cherry-pick, antagonist series (AID 743412); assay type: functional, cell-based
[22] = cells
[23] = target: Major prion protein (Homo sapiens, UniProt P04156); assay type: functional, cell-based
[24] = cells; remark: listed apart in the source
[25] = target: Long-chain-fatty-acid--AMP ligase FadD28 (Mycobacterium tuberculosis, UniProt P9WQ59); assay: Fluorescence polarization aasay to screen for inhibitors that compete for the binding of FadD28 to a bisubstrate Measured in Biochemical System Using Plate Reader - 2147-01_Inhibitor_Dose_CherryPick_Activity.; assay type: functional, Mycobacterium tuberculosis H37Rv
[26] = Luminescence Cell-Based Dose Confirmation HTS to Identify Inhibitors of Platelet Dense Granule Release. [Related pubchem assays: 1663 (Primary HTS), 1678 (Summary of Project)]; assay type: functional
[27] = target: Luciferin 4-monooxygenase (Photinus pyralis, UniProt P08659); assay: firefly luciferase enzyme inhibitors, dose response, biochemical, luminescence (AID 1891)
[28] = target: T5, Oxysterols receptor LXR-beta (Homo sapiens, UniProt P55055); assay type: functional, cell-based;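 also: agonist activity at LXR measured by a cell-based luminescence readout across a dose range, run as a counterscreen for daf-12 agonists; HEK293 cells with Gal4-LXR fusion and GAL4-driven luciferase reporter; potency for activation of Gal4-LXR reporter so compounds are agonists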
T5 sequence (P55055 whole entry): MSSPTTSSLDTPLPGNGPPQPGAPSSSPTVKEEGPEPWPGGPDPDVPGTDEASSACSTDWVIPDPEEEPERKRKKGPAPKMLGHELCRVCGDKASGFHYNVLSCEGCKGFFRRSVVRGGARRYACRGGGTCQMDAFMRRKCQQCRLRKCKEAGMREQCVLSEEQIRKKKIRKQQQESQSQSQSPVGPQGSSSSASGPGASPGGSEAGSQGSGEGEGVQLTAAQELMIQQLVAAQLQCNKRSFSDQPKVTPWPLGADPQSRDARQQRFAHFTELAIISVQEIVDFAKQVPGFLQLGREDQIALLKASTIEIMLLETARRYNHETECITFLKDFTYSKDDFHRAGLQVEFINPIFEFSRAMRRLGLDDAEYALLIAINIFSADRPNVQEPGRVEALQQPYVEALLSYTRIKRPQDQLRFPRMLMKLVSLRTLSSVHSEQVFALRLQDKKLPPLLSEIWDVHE

[29] = system: A549; assay: A549 cell toxicity, dose response, cytotoxicity control, plate reader, cherry-pick samples (AID 687028); assay type: functional, cell-based; settings: Homo sapiens
[30] = target: Eukaryotic translation initiation factor 4E (Mus musculus, UniProt P63073); assay: eIF4E–eIF4G protein interaction inhibitors, dose response, biochemical, TR-FRET (AID 855); assay type: functional;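 also: potency for disrupting eIF4E binding to eIF4GI seen as loss of FRET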
[31] = HEK293 cell viability, dose response, counter-screen for EBV LMP1 inhibitor project, dry powder, set 2 (AID 624374); assay type: functional

With COc1ccc(CCN2C(=S)N(C)C(=O)C2CC(=O)Nc2ccc(F)cc2)cc1 (stereo unspecified) the IC50 [1] was 2.69 µM (active), the IC50 [2] was 6.54 µM (active) and the IC50 [3] was 32.7 µM (inactive).
With CCN1C(=O)C(CC(=O)Nc2ccc(OC)cc2)N(CCc2ccc(OC)cc2)C1=S (stereo unspecified) the IC50 [1] was 5.11 µM (active), the IC50 [2] was 13.1 µM (inactive) and the IC50 [3] was 52.4 µM (inactive).
For Cc1c(O)ccc(/C(Cc2ccc3ccccc3n2)=N\O)c1O, the IC50 [4] was 62.1 µM (active) and the CC50 [5] was 100 µM (active).
For Cc1cc(OCC(=O)NCCc2ccc(S(N)(=O)=O)cc2)c2c(C)c(C)c(=O)oc2c1, the IC50 [6] was 1.1 µM (active).
For CC(C)c1ccc(-c2nc3ccccc3s2)cc1, the IC50 [7] was 3.21 µM (active), the EC50 [8] was 4.67 µM (active) and the AC50 [9] was 7.87 µM (active). For the same compound, the IC50 [10] was > 20 µM (inactive), the AC50 [11] was 5.31 µM (active) and the IC50 [12] was 75.6 µM (inactive). For the same compound, the AC50 [13] was 34 µM (active), the AC50 [14] was < 0.068 µM (active) and the AC50 [15] was 0.133 µM (active). The IC50 [16] was 0.478 µM (active), the EC50 [17] was < 0.16 µM (active) and the EC50 [18] was 0.02 µM (active). The AC50 [19] was > 52 µM (inactive), the IC50 [20] was > 20 µM (inactive) and the AC50 [21] was 22.8 µM (active).
For COc1cccc2c(=O)c3c(cnn3C)n(C)c12, the AC50 [22] was 2.16 µM (active).
In the case of COc1ccc(NC(=O)CCSc2ccc3ccccc3n2)cc1, the IC50 [23] is reported as 4.52 µM (active) and the IC50 [24] is reported as > 138 µM (inactive).
In the case of CCOC(=O)c1ccc(NC(S)=NNC(=O)C2(C)CC2(Cl)Cl)cc1 (stereo unspecified), the AC50 [25] is reported as 13.8 µM (active).
For Cc1csc(NC(=O)c2cn3ccccc3n2)n1, the EC50 [26] was 4.85 µM (active), the EC50 [27] was 8.32 µM (active) and the AC50 [13] was 47.2 µM (active). The AC50 [14] was 1.92 µM (active), the AC50 [15] was 2.16 µM (active) and the AC50 [19] was > 52 µM (inactive). For the same compound, the AC50 [21] was > 52 µM (inactive).
For O=C(CC(=O)c1cccs1)c1ccncc1, the EC50 [28] was > 67.5 µM (inactive).
With COc1ccc(OC)c(S(=O)(=O)N2CCN(c3c(C)cccc3C)CC2)c1 the AC50 [29] was 20.8 µM (active) and the IC50 [30] was > 64 µM (inactive).
In the case of CN(C)/C=N/C(=S)Nc1ccc(Cl)cc1, the EC50 [28] is reported as > 67.5 µM (inactive).
With COc1cc(C(S)=NCc2ccccc2)cc(Br)c1O the AC50 [25] was 53.6 µM (active).
For Cc1noc(C)c1S(=O)(=O)Nc1ccc2c(c1)C(=O)N([C@@H](C)CO)C[C@@H](C)[C@H](CN(C)Cc1ccc(C(F)(F)F)cc1)OCCCC[C@H](C)O2, the AbsAC35 [31] was 151.31 µM.
